Assay results published in ChEMBL document CHEMBL1201862, “PubChem BioAssay data set” (2004).
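Cultured in 96-well plates, cells were exposed to test compound for 48 hours across five concentrations. The concentration for 50% growth inhibition is given as GI50.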 The source made the active and inactive calls. Rule as the data show it: active = GI50 up to about 1.1 µM and inactive = higher.

Columns and labels:
Assay in all cases: NCI tumour cell line growth inhibition, 48 h
EKVX = test system: EKVX
COLO 205 = test system: COLO 205
HT-29 = test system: HT-29
NCI-H226 = test system: NCI-H226
OVCAR-5 = test system: OVCAR-5
MDA-N = test system: MDA-N
SK-MEL-28 = test system: SK-MEL-28
NCI-H23 = test system: NCI-H23
786-0 = test system: 786-0
SK-MEL-2 = test system: SK-MEL-2
SK-OV-3 = test system: SK-OV-3
U-251 = test system: U-251
K562 = test system: K562
SNB-75 = test system: SNB-75
TK-10 = test system: TK-10
NCI-H460 = test system: NCI-H460
MCF7 = test system: MCF7
LOX IMVI = test system: LOX IMVI
OVCAR-8 = test system: OVCAR-8
A549 = test system: A549

SMILES	GI50 (EKVX)	GI50 (COLO 205)	GI50 (HT-29)	GI50 (NCI-H226)	GI50 (OVCAR-5)	GI50 (MDA-N)	GI50 (SK-MEL-28)	GI50 (NCI-H23)	GI50 (786-0)	GI50 (SK-MEL-2)	GI50 (SK-OV-3)	GI50 (U-251)	GI50 (K562)	GI50 (SNB-75)	GI50 (TK-10)	GI50 (NCI-H460)	GI50 (MCF7)	GI50 (LOX IMVI)	GI50 (OVCAR-8)	GI50 (A549)
COc1ccc(/C=C2\CCc3cc(OC)c(OC)cc3C2=O)cc1	> 10 µM (inactive)	> 10 µM (inactive)	> 10 µM (inactive)	> 10 µM (inactive)	> 10 µM (inactive)	> 10 µM (inactive)	> 10 µM (inactive)	> 10 µM (inactive)	> 10 µM (inactive)	> 10 µM (inactive)	> 10 µM (inactive)	> 10 µM (inactive)	> 10 µM (inactive)	5.12 µM (inactive)	> 10 µM (inactive)	> 10 µM (inactive)	> 10 µM (inactive)	> 10 µM (inactive)	> 10 µM (inactive)	> 10 µM (inactive)
Cc1ccc(S(=O)(=O)SC(C)(C)C)cc1	> 45.8 µM (inactive)	47.6 µM (inactive)	13.1 µM (inactive)	> 86.7 µM (inactive)	> 48.4 µM (inactive)	> 10 µM (inactive)	48.4 µM (inactive)	11.2 µM (inactive)	16.9 µM (inactive)	33.2 µM (inactive)	> 100 µM (inactive)	> 100 µM (inactive)	19.9 µM (inactive)	> 63.5 µM (inactive)	40.3 µM (inactive)	> 100 µM (inactive)	19.2 µM (inactive)	21.9 µM (inactive)	21.3 µM (inactive)	> 100 µM (inactive)
COc1cc(CCNC2=CC(=O)c3nc[nH]c3C2=O)ccc1O	21.2 µM (inactive)	22.6 µM (inactive)	23.6 µM (inactive)	31.5 µM (inactive)	18.6 µM (inactive)	18 µM (inactive)	26.7 µM (inactive)	20.7 µM (inactive)	35.7 µM (inactive)	21.4 µM (inactive)	34.4 µM (inactive)	23.7 µM (inactive)	34.1 µM (inactive)	19 µM (inactive)	36.1 µM (inactive)	25.7 µM (inactive)	17.1 µM (inactive)	19 µM (inactive)	19.6 µM (inactive)	26.6 µM (inactive)
CCOc1cc2c(cc1O)/C(=N/NS(=O)(=O)c1ccc(C)cc1)C[C@@H]1[C@@H]2CC[C@]2(C)[C@@H](O)CC[C@@H]12	13 µM (inactive)	3.36 µM (inactive)	2.89 µM (inactive)	6.01 µM (inactive)	21 µM (inactive)	1.2 µM (inactive)	> 100 µM (inactive)	32.7 µM (inactive)	9.73 µM (inactive)	3.94 µM (inactive)	10.5 µM (inactive)	6.53 µM (inactive)	1.02 µM (active)	5.3 µM (inactive)	51.1 µM (inactive)	4.65 µM (inactive)	4.02 µM (inactive)	8.43 µM (inactive)	12.4 µM (inactive)	6.46 µM (inactive)
C/C(=N/NC(=S)N1CCCCC1)c1ccccc1O	29.9 µM (inactive)	23.4 µM (inactive)	23.1 µM (inactive)	> 31.6 µM (inactive)	> 31.6 µM (inactive)	> 31.6 µM (inactive)	> 31.6 µM (inactive)	> 31.6 µM (inactive)	> 31.6 µM (inactive)	> 31.6 µM (inactive)	> 31.6 µM (inactive)	> 31.6 µM (inactive)	22.8 µM (inactive)	> 10 µM (inactive)	> 31.6 µM (inactive)	22.6 µM (inactive)	14.3 µM (inactive)	> 31.6 µM (inactive)	> 31.6 µM (inactive)	> 31.6 µM (inactive)
CC1=Nc2c(O)nc(S)nc2NC(c2c(Cl)cccc2Cl)C1 (stereo not given)	7.18 µM (inactive)	1.87 µM (inactive)	0.998 µM (active)	5.21 µM (inactive)	5.83 µM (inactive)	0.552 µM (active)	2.73 µM (inactive)	2.65 µM (inactive)	0.902 µM (active)	18 µM (inactive)	7.28 µM (inactive)	0.993 µM (active)	0.649 µM (active)	3.34 µM (inactive)	10.1 µM (inactive)	1.92 µM (inactive)	1.13 µM (inactive)	0.766 µM (active)	0.877 µM (active)	3.43 µM (inactive)
CCOP(=O)(OCC)C(c1ccccc1)N(C(=O)NC(F)(F)F)c1ccc(C)cc1 (stereo not given)	> 100 µM (inactive)	> 100 µM (inactive)	> 100 µM (inactive)	> 100 µM (inactive)	> 100 µM (inactive)	> 100 µM (inactive)	> 100 µM (inactive)	> 100 µM (inactive)	> 100 µM (inactive)	> 100 µM (inactive)	> 100 µM (inactive)	> 100 µM (inactive)	> 100 µM (inactive)	> 100 µM (inactive)	> 100 µM (inactive)	> 100 µM (inactive)	> 100 µM (inactive)	> 100 µM (inactive)	> 100 µM (inactive)	> 100 µM (inactive)
COc1ccc(/C=C/C(=O)NCC(NC(=O)/C=C/c2ccc(OC)c(OC)c2)C(=O)O)cc1OC (stereo not given)	> 100 µM (inactive)	> 100 µM (inactive)	> 100 µM (inactive)	> 100 µM (inactive)	> 100 µM (inactive)	> 100 µM (inactive)	> 100 µM (inactive)	> 100 µM (inactive)	> 100 µM (inactive)	> 100 µM (inactive)	> 100 µM (inactive)	> 100 µM (inactive)	> 100 µM (inactive)	> 100 µM (inactive)	> 100 µM (inactive)	> 100 µM (inactive)	> 100 µM (inactive)	> 100 µM (inactive)	> 100 µM (inactive)	> 100 µM (inactive)
N#C[BH2-][n+]1cn(C2CC(OP(=O)(O)OCC3OC(n4cnc5c(=O)[nH]c(N)nc54)CC3O)C(CO)O2)c2nc(N)[nH]c(=O)c21 (stereo not given)	> 100 µM (inactive)	> 100 µM (inactive)	> 100 µM (inactive)	> 100 µM (inactive)	> 100 µM (inactive)	> 100 µM (inactive)	> 100 µM (inactive)	> 100 µM (inactive)	> 100 µM (inactive)	> 100 µM (inactive)	> 100 µM (inactive)	> 100 µM (inactive)	55.5 µM (inactive)	> 100 µM (inactive)	> 100 µM (inactive)	> 100 µM (inactive)	62.8 µM (inactive)	55.5 µM (inactive)	> 100 µM (inactive)	> 100 µM (inactive)
COc1cc(/C=C2\CC/C(=C\c3cc(OC)c(O)c(OC)c3)C2=O)cc(OC)c1O	3.13 µM (inactive)	17.1 µM (inactive)	10.4 µM (inactive)	3.94 µM (inactive)	6.18 µM (inactive)	2.27 µM (inactive)	1.05 µM (active)	1.98 µM (inactive)	4.9 µM (inactive)	0.667 µM (active)	3.81 µM (inactive)	2.06 µM (inactive)	2.76 µM (inactive)	1.19 µM (inactive)	5.32 µM (inactive)	1.89 µM (inactive)	1.91 µM (inactive)	2.29 µM (inactive)	3.01 µM (inactive)	3.19 µM (inactive)
Cc1c2cccc-2ccc2c1[nH]c1ccccc12	1.45 µM (inactive)	1.89 µM (inactive)	3.78 µM (inactive)	1.97 µM (inactive)	2.12 µM (inactive)	1.97 µM (inactive)	1.75 µM (inactive)	2.77 µM (inactive)	2.81 µM (inactive)	1.8 µM (inactive)	3.23 µM (inactive)	1.66 µM (inactive)	2.94 µM (inactive)	2.14 µM (inactive)	2.32 µM (inactive)	1.85 µM (inactive)	3.06 µM (inactive)	2.55 µM (inactive)	2.54 µM (inactive)	2.22 µM (inactive)
NC(=S)N/N=C/c1ncccc1N [TRIAPINE]	7.55 µM (inactive)	2.23 µM (inactive)	1.93 µM (inactive)	2.75 µM (inactive)	5.08 µM (inactive)	2.65 µM (inactive)	> 10 µM (inactive)	0.332 µM (active)	0.314 µM (active)	> 10 µM (inactive)	> 8.55 µM (inactive)	1.04 µM (active)	3.13 µM (inactive)	0.773 µM (active)	> 10 µM (inactive)	1.68 µM (inactive)	0.452 µM (active)	0.679 µM (active)	0.568 µM (active)	2.02 µM (inactive)
